Read-outs that look alike come from different tables or passages of the source.
Assays:
[1] = molecular target: T1, DYRK2 (Homo sapiens, UniProt Q92630); experiment: KinomeScan; assay type: binding; conditions: read-out: % Control
T1 construct: purchased DiscoveRx (Fremont, CA), KinomeScan service

[2] = molecular target: T2, FES (Homo sapiens, UniProt P07332); experiment: KinomeScan; assay type: binding; conditions: read-out: % Control
T2 construct: purchased DiscoveRx (Fremont, CA)

[3] = molecular target: T3, NMU1 (Homo sapiens, UniProt Q9HB89); experiment: GPCR Profiler; assay type: cell-based
T3 construct: host or cells: Chem-1 cells expressing Gα15
T3 sequence (Q9HB89 whole entry): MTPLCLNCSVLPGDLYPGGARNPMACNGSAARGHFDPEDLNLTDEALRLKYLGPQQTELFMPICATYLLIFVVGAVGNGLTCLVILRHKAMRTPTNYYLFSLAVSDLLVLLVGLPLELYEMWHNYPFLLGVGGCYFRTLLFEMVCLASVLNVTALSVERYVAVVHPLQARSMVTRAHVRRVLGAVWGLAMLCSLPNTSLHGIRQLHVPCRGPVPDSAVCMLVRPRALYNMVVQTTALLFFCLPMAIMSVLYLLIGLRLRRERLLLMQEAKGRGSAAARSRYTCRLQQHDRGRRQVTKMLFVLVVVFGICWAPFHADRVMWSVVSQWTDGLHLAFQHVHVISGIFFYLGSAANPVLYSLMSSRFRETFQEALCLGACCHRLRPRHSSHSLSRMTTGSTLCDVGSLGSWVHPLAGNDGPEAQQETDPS

[4] = molecular target: T4, MEK6 (Homo sapiens, UniProt P52564); experiment: KinomeScan; assay type: binding; conditions: read-out: % Control
T4 construct: purchased DiscoveRx (Fremont, CA)
T4 sequence (P52564 whole entry): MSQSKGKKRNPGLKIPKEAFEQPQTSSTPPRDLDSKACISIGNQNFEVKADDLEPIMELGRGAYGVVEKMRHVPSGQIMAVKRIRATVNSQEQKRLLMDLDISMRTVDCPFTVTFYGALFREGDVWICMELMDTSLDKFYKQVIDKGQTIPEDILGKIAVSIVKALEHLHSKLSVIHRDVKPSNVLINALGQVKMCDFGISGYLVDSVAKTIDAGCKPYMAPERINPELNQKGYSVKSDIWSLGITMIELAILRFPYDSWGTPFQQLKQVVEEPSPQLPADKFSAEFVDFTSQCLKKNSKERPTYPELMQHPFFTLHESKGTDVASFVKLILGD

[5] = molecular target: T5, PRKG2 (Homo sapiens, UniProt Q13237); experiment: KinomeScan; assay type: binding; conditions: read-out: % Control
T5 construct: purchased DiscoveRx (Fremont, CA)
T5 sequence (Q13237 whole entry): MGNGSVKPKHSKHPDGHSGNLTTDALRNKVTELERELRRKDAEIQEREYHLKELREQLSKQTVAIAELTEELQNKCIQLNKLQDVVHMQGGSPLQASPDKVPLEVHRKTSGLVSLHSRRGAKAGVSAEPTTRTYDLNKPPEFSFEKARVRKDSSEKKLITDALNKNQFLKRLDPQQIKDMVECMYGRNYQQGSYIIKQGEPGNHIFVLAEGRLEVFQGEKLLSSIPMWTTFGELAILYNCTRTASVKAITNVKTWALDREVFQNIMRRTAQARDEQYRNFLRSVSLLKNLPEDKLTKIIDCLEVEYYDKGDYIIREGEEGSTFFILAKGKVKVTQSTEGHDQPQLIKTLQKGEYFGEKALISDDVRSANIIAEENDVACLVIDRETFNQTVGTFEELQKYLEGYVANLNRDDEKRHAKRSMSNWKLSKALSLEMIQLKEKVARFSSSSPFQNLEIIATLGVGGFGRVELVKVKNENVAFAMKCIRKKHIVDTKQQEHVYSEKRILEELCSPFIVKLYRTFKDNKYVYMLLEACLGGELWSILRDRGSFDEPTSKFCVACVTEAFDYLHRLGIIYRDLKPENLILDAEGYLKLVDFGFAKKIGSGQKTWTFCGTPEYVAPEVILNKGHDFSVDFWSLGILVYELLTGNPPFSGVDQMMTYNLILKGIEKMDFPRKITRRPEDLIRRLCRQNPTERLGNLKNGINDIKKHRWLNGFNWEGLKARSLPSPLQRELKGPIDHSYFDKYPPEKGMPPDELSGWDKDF

[6] = molecular target: T6, PRKCE (Homo sapiens, UniProt Q02156); experiment: KinomeScan; assay type: binding; conditions: read-out: % Control
T6 construct: purchased DiscoveRx (Fremont, CA)
T6 sequence (Q02156 whole entry): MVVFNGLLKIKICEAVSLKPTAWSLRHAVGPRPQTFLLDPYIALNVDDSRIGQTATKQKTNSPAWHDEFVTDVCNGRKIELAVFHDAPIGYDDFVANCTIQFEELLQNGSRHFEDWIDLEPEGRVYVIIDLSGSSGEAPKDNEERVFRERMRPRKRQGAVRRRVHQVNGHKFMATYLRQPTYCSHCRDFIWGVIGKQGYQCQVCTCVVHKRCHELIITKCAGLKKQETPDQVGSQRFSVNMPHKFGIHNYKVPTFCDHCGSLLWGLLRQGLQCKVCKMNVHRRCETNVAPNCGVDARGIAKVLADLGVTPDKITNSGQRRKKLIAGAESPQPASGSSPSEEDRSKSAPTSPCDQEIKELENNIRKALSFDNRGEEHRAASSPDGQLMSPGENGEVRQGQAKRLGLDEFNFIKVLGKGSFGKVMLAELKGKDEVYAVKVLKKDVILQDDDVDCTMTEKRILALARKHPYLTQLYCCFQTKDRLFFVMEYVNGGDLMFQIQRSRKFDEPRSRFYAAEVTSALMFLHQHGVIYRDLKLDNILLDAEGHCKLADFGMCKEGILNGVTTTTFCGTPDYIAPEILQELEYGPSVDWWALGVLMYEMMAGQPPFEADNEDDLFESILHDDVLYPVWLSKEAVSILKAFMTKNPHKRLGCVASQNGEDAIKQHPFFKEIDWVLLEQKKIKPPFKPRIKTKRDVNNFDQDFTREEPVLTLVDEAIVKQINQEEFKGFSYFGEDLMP

[7] = molecular target: T7, CDK8 (Homo sapiens, UniProt P49336); experiment: KinomeScan; assay type: binding; conditions: read-out: % Control
T7 construct: purchased DiscoveRx (KinomeScan service)
T7 sequence (P49336 whole entry): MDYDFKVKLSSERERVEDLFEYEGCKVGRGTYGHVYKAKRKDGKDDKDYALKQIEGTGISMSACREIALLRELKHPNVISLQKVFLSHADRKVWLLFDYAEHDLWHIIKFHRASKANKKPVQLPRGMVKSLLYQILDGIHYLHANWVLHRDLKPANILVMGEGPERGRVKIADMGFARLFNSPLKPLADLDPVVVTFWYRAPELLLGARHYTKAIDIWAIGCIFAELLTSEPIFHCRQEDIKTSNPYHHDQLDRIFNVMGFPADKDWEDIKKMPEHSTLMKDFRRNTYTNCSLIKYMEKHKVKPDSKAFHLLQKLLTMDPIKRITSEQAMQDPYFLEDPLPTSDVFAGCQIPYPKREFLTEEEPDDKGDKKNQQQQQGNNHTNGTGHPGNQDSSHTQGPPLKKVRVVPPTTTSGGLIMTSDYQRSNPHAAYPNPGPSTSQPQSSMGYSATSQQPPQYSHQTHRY

[8] = molecular target: CLK3 (Homo sapiens, UniProt P49761); experiment: KinomeScan; assay type: binding; conditions: read-out: % Control
Sequence of CLK3 (P49761 whole entry): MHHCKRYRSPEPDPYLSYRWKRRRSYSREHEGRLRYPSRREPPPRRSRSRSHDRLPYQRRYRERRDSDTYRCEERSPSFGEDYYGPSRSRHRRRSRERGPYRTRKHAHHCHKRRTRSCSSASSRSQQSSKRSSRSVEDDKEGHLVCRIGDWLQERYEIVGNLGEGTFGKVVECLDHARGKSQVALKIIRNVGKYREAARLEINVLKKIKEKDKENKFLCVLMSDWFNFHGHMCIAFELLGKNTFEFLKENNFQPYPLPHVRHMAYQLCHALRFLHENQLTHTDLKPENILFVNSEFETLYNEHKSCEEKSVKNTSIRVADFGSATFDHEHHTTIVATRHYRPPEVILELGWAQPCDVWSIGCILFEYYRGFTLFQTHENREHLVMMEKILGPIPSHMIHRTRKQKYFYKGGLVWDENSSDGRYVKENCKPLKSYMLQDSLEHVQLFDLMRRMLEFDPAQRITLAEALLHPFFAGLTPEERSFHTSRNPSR

[9] = molecular target: T8, BRAF(V600E) (Homo sapiens, UniProt P15056, V600E); experiment: KinomeScan; assay type: binding; conditions: read-out: % Control
T8 construct: purchased DiscoveRx (Fremont, CA)

[10] = molecular target: T9, NEK11 (Homo sapiens, UniProt Q8NG66); experiment: KinomeScan; assay type: binding; conditions: read-out: % Control
T9 construct: purchased DiscoveRx
T9 sequence (Q8NG66 whole entry): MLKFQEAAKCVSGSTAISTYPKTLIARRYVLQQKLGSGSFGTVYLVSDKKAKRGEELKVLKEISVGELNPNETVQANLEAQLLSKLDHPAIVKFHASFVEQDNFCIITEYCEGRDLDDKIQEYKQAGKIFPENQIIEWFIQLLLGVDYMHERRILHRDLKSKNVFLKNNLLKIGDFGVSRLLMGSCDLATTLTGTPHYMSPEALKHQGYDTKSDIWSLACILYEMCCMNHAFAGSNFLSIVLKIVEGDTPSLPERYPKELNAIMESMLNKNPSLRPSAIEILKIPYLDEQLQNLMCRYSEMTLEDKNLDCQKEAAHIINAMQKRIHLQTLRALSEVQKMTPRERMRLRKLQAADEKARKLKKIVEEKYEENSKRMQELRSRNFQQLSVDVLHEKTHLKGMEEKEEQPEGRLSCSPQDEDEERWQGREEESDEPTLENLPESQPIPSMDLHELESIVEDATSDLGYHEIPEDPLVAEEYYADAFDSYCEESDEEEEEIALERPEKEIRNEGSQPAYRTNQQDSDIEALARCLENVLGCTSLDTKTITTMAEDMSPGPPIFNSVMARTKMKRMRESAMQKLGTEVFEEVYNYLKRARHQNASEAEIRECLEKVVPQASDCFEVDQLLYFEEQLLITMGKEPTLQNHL

[11] = molecular target: T10, MAPKAPK5 (Homo sapiens, UniProt Q8IW41); experiment: KinomeScan; assay type: binding; conditions: read-out: % Control
T10 construct: purchased DiscoveRx (Fremont, CA)
T10 sequence (Q8IW41 whole entry): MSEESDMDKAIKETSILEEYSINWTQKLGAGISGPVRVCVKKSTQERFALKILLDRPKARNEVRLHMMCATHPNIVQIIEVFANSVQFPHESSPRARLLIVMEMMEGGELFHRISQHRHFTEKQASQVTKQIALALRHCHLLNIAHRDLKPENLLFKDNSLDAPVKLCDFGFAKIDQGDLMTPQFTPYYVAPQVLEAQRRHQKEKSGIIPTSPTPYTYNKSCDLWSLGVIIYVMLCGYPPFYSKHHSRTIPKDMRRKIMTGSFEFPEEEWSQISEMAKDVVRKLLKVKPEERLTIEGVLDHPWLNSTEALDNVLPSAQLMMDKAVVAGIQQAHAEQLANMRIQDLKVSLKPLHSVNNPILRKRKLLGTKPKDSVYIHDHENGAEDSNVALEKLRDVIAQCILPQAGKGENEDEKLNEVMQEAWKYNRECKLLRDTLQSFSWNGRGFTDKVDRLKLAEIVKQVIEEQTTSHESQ

[12] = molecular target: T11, LZK (Homo sapiens, UniProt O43283); experiment: KinomeScan; assay type: binding; conditions: read-out: % Control
T11 construct: purchased DiscoveRx

[13] = molecular target: T12, FLT1 (Homo sapiens, UniProt P17948); experiment: KinomeScan; assay type: binding; conditions: read-out: % Control
T12 construct: purchased DiscoveRx (Fremont, CA)

[14] = molecular target: T13, INSR (Homo sapiens, UniProt P06213); experiment: KinomeScan; assay type: binding; conditions: read-out: % Control
T13 construct: purchased DiscoveRx (Fremont, CA)

[15] = molecular target: T14, P2Y2 (Homo sapiens, UniProt P41231); experiment: GPCR Profiler; assay type: cell-based
T14 construct: host or cells: Chem-1 cells expressing Gα15
T14 sequence (P41231 whole entry, species assumed): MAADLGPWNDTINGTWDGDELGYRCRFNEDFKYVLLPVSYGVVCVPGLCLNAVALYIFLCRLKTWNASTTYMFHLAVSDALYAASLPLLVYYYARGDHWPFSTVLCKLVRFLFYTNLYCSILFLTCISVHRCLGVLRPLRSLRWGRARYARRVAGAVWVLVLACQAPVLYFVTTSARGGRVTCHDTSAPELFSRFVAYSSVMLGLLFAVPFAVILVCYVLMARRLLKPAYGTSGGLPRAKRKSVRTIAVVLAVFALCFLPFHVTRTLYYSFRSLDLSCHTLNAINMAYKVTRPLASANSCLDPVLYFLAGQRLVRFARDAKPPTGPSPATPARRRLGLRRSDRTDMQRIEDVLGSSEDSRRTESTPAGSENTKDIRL

[16] = test system: U87; experiment: Western blot (TFRC, HO-1, cleaved caspase 3); assay type: cell-based, human
Method: Using Pierce™ BCA Protein Assay Kit (ThermoFisher Scientific™), protein concentrations were determined for each sample following manufacturing protocol. Gel electrophoresis was conducted on NuPAGE™ 4-12% Bis-Tris gels (Invitrogen™) using 20 ug of total protein per sample. Proteins were transferred to PVDF membranes by semi-dry transfer. Membranes were blocked using Intercept® (PBS) Blocking Buffer (LI-COR™) for one hour at room temperature on a tilting shaker. Primary antibodies in 5% non-fat dry milk were added to the membranes for overnight incubation at 4° C. on a rotating shaker. Primary antibodies included transferrin receptor (TFRC), heme-oxygenase 1 (HO-1), and cleaved caspase 3 with GAPDH and α-tubulin used as normalization controls. The next day, membranes were washed in three, five-minute intervals with PBST (Tween 0.5%). Corresponding secondary HRP-conjugated antibodies in 5% non-fat dry milk were added to incubate at room temperature for one hour on a tilting shaker. The membranes were washed with PBST in four, five-minute intervals before protein visualization using Radiance Q (Azure Biosystems™) on Bio-Rad™ ChemiDoc™ MP Imaging System. Protein quantification was completed in triplicate using Fiji software package.

[17] = test system: HCT 116; experiment: Cell Titer-Glo viability, Colorectal adenocarcinoma; assay type: cell-based; conditions: 72 hours
Method: (§1) OGM2 kills wide variety of cancer cell types. Cell sensitivity can be classified in to Very Sensitive (LC50<2 μM), Sensitive (LC50=2 to 10 μM), Mildly Sensitive (LC50>10 μM), and Refractory (no killing at 10 μM). The listed established cell were incubated with OGM2 at 2 μM or 10 μM for 72 hours under standard cell culture conditions, and relative cell number was assessed using Cell Titer-Glo Luminescent Cell Viability Assay (Promega™) following the manufacturer's instructions. Luminescence was determined using a Cytation 5 reader and Gen5 software package (BioTek™).
(§2) Cancer cells, which are very sensitive to killing by OGM2 (LCs <2 μM), with reported mRNA expression of GPR68 and the related proton sensing receptor GPR4. LC50's (concentrations causing 50% lethality) were determined using CellTiter-Glo (Promega™, G7570). Cells were plated in 12-well plates (CELLTREAT Scientific Products, 229112) in 1 ml of DMEM with high glucose, GlutaMAX, HEPES, or RPMI 1640 with Penicillin-Streptomycin (ThermoFisher™, 10564029, 11875119 and 15140122) and 10% FBS. Cells were incubated overnight at 37° C. in 5% CO2. Then 1 mL of fresh media was added with DMSO, OGM, or positive control (Erastin; APExBIO Technology, LLC, B1524) and cells incubated for 3 days. On the third day, all media was removed, cells were rinsed with 1×PBS, PBS was removed, and 200 μL of 1× Passive Lysis Buffer (Promega™, E1941) was added to each well. […]. Subsequently, 20 μL of lysate was added to 100 μL CellTiter-Glo™ reagent on a LUMITRAC 200 plate (Greiner™ bio-one, 82050-726). Plates were briefly spun down and read on a GloMax-Multi Detection System (Promega™).
(§3) The cells listed in the tables above were incubated with OGM2 at 2 μM or 10 μM for 72 hours under standard cell culture conditions, and relative cell number was assessed using Cell Titer-Glo Luminescent Cell Viability Assay (Promega™) following the manufacturer's instructions. Luminescence was determined using a Cytation 5 reader and Gen5 software package (BioTek™). RNA expression of GPR68 and GPR4 in the corresponding cancer cell lines are listed, according to the publicly available The Human Protein Atlas version 22.0 and Ensembl version 103.38 (see proteinatlas.org). The consensus normalized expression value (“nTPM”=normalize transcript per million) was calculated as the maximum nTPM value for each gene in the two data sources.

[18] = test system: RKO; experiment: as above; assay type: cell-based
Method: as §1, §2, §3

CCc1ccc2c(c1)C1(NN=C(c3cccc4ccccc34)S1)C(=O)N2 (stereo not drawn) [OGM1, 5-ethyl-5′-naphthalen-1-ylspiro[1H-indole-3,2′-3H-1,3,4-thiadiazole]-2-one]
remaining binding at 10 µM [1]: 91% | remaining binding at 10 µM [2]: 100% | Antagonism ([3]; 10 uM): 6.2 | Agonism ([3]; 12.5 uM): 1.8 | remaining binding at 10 µM [4]: 76% | remaining binding at 10 µM [5]: 91% | remaining binding at 10 µM [6]: 68% | remaining binding at 10 µM [7]: 100% | remaining binding at 10 µM [8]: 100% | remaining binding at 10 µM [9]: 94% | remaining binding at 10 µM [10]: 88% | remaining binding at 10 µM [11]: 86% | remaining binding at 10 µM [12]: 100% | remaining binding at 10 µM [13]: 100% | remaining binding at 10 µM [14]: 80% | Antagonism ([15]; 10 uM): −9 | Agonism ([15]; 12.5 uM): 0.1

CCc1ccc2c(c1)C1(NN=C(c3ccccc3)S1)C(=O)N2 (stereo not drawn) [OGM2]
cleaved caspase 3 level [16]: did not increase | protein levels of TFRC and HO-1 [16]: significantly increased | % Survival 2 μM OGM [17]: 44.5% | % Survival 10 μM OGM [17]: 32.7% | CC50 ([17]; Homo sapiens, HCT-116, read-out: LC50 (the source's name)): < 2 µM | Class [18]: Mildly | % Survival 2 μM OGM ([18]; 72 hours): 92.4% | % Survival 10 μM OGM ([18]; 72 hours): 57.6% | CC50 ([18]; Homo sapiens, RKO, 72 hours, read-out: LC50 (the source's name)): > 10 µM | Class ([18]; Table 13): Low
